This is an account of results in ChEMBL document CHEMBL3864191 (ACS Med Chem Lett, 2016).

“And” between values parts separate entries of the source, which are not always exact repeats. Identical values can stand only once. The source made the active and inactive calls. No cut-off for these calls is given here.

Data set [1] in a line: Cytotoxicity against human leukemia cells assessed as cell growth inhibition after 48 hrs by SRB assay. Type of data set: functional. A general note: Sulforhodamine B stains cellular protein and so reports cell mass.
The nature of data set [2]: Cytotoxicity against African green monkey Vero cells assessed as reduction in cell viability at 0.33 to 100 uM after 72 hrs by MTT assay. Type of data set: toxicity, cell-based. The settings on record: chlorocebus sabaeus. For orientation: Formazan colour is commonly taken as a measure of viable cells.
Data set [3] can be described thus: Cytotoxicity against human prostate cancer cells assessed as cell growth inhibition after 48 hrs by SRB assay. Type of data set: functional. The settings on record: Cancer cell lines.
Data set [4] can be described thus: Stability in human liver microsomes at 4.75 uM preincubated for 5 mins followed by NADPH addition after 60 mins by HPLC analysis. The class given is ADME. Particulars: 1 h.
Data set [5] can be described thus: Cytotoxicity against human breast cancer cells assessed as cell growth inhibition after 48 hrs by SRB assay. The class given is functional. The settings on record: Cancer cell lines.
Data set [6] in a line: Cytotoxicity against human ovarian cancer cells assessed as cell growth inhibition after 48 hrs by SRB assay. The class given is functional. The settings on record: Cancer cell lines.
The target of data set [7] is Apoptosis regulator Bcl-2 (Homo sapiens, UniProt P10415). Nature of the data set: Inhibition of FAM-Bid binding to human BCL2 expressed in Escherichia coli BL21 after 30 mins by fluorescence polarization assay.
Data set [8] is described as follows: Cytotoxicity against human renal cancer cells assessed as cell growth inhibition after 48 hrs by SRB assay. Type of data set: functional. Particulars: Cancer cell lines.
The target in data set [9] is Induced myeloid leukemia cell differentiation protein Mcl-1 (Homo sapiens, UniProt Q07820). Nature of the data set: Inhibition of FAM-Bid binding to human MCL1 expressed in Escherichia coli BL21 after 30 mins by fluorescence polarization assay.
Another data set relates to MCF7. Nature of the data set: Potency index, ratio of (-)-gossypol IC50 to compound IC50 for human MCF7 cells. The class given is functional.
A short description of data set [10]: Cytotoxicity against human colon cancer cells assessed as cell growth inhibition after 48 hrs by SRB assay. The class given is functional. Particulars: Cancer cell lines.
A short description of data set [11]: Cytotoxicity against human NCI60 cells assessed as cell growth inhibition after 48 hrs by SRB assay. Type of data set: functional. Particulars: NCI60, 48 h.
Data set [12] can be described thus: Cytotoxicity against human DU145 cells assessed as reduction in cell viability after 72 hrs by MTT assay. Type of data set: functional, cell-based, DU-145.
The nature of data set [13]: Cytotoxicity against HEK293T cells assessed as reduction in cell viability at 0.33 to 100 uM after 72 hrs by MTT assay. The class given is toxicity, cell-based. Particulars: human, hek-293t.
A short description of data set [14]: Cytotoxicity against human CNS cancer cells assessed as cell growth inhibition after 48 hrs by SRB assay. The class given is functional. The settings on record: Cancer cell lines.
Data set [15] in a line: Stability in rat liver microsomes at 4.75 uM preincubated for 5 mins followed by NADPH addition after 60 mins by HPLC analysis. The class given is ADME. The settings on record: 1 h. On the technique in general: Liver microsomes are a subcellular fraction often used to study metabolism.
Data set [16] in a line: Cytotoxicity against mouse CT26 cells assessed as reduction in cell viability after 72 hrs by MTT assay. The class given is functional, cell-based.
Data set [17] in a line: cells. The settings on record: Homo sapiens, HCT-116, 72 h.
Description: Cytotoxicity against human HCT116 cells assessed as reduction in cell viability after 72 hrs by MTT assay
Data set [18] can be described thus: Chemical stability of compound in pH 1 to 10 Hcl solution after 3 hrs by HPLC analysis. Type of data set: physicochemical. The settings on record: buffer, pH 1, 3 h.
Data set [19] can be described thus: cells. Particulars: Homo sapiens, MCF7, 72 h.
Description: Cytotoxicity against human MCF7 cells assessed as reduction in cell viability after 72 hrs by MTT assay
Data set [20] can be described thus: Cytotoxicity against human non-small cell lung cancer cells assessed as cell growth inhibition after 48 hrs by SRB assay. Type of data set: functional. The settings on record: Cancer cell lines.
The nature of data set [21]: Cytotoxicity against human melanoma cells assessed as cell growth inhibition after 48 hrs by SRB assay. Type of data set: functional.
Another data set relates to NCI60. Kind of data set: Cytotoxicity against human NCI60 cells assessed as cell growth inhibition up to 10 uM after 48 hrs by SRB assay. Type of data set: functional, cell-based.
A further data set deals with CT26. Kind of data set: Potency index, ratio of (-)-gossypol IC50 to compound IC50 for mouse CT26 cells. Type of data set: functional.
The test system of the next data set is SNB-19. Nature of the data set: Cytotoxicity against human SNB19 cells assessed as cell growth inhibition after 48 hrs by SRB assay. The class given is functional, cell-based.
For another data set, the system named is U-251. Kind of data set: Cytotoxicity against human U251 cells assessed as cell growth inhibition after 48 hrs by SRB assay. Type of data set: functional, cell-based.
The test system of the next data set is RXF 393. Nature of the data set: Cytotoxicity against human RXF393 cells assessed as cell growth inhibition after 48 hrs by SRB assay. Type of data set: functional, cell-based.
The next data set deals with HOP-92. Nature of the data set: Cytotoxicity against human HOP92 cells assessed as cell growth inhibition after 48 hrs by SRB assay. The class given is functional, cell-based.

Chain of Induced myeloid leukemia cell differentiation protein Mcl-1 (Q07820 whole entry): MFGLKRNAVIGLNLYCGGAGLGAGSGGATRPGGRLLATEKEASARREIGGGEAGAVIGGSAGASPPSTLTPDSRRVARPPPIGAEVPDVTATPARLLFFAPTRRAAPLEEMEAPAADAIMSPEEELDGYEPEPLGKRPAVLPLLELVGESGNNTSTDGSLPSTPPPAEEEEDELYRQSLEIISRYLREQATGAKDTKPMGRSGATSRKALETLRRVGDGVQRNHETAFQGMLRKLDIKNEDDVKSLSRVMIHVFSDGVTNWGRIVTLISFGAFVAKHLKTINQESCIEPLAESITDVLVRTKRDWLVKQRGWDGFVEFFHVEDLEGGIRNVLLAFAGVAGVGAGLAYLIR
Chain of Apoptosis regulator Bcl-2 (P10415 whole entry): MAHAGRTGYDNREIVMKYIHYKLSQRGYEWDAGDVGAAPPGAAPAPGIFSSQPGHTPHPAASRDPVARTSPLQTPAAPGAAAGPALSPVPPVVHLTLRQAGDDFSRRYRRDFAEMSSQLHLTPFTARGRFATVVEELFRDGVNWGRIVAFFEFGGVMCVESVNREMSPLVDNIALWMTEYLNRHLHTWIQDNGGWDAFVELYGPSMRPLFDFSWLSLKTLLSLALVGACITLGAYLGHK

As to `COC(=O)CCCN/C=C1\C(=O)C(O)=C(C(C)C)c2cc(C)c(-c3c(C)cc4c(c3O)/C(=C/NCCCC(=O)OC)C(=O)C(O)=C4C(C)C)c(O)c21` (stereo in doubt; 16), the GI50 in data set [1] turned out to be 0.56 µM; in [3] it was 0.41 µM; in [5], 0.74 µM; in data set [6], 0.59 µM; in [8], 0.82 µM; in data set [10] it was 0.46 µM. The GI50 was 0.1 to 1.7 µM in data set [11], 0.6 µM in data set [14], 0.48 µM in [20] and 0.99 µM in [21]. Besides, the Activity result in data set [2] and in [13] was “Non-Toxic” each time. Besides, the Stability entry in data set [4], in data set [15] and in data set [18] was “Stable” in each case. Besides, the half-maximal inhibitory concentration (IC50) in data set [7] was 0.825 µM; in data set [9], 0.947 µM; in data set [12] (Homo sapiens, DU-145, 72 h) it was 2.39 µM; in [16] (Mus musculus, CT26, 72 h) it was 8.39 µM; in “cells [17]” it was 2.75 µM; in the data set “cells [19]”, 4.39 µM. Also, the figures for the Ki in data set [7] and in [9] were 0.341 µM and 0.18 µM, respectively. Further, the “Ratio IC50” value with MCF7 came out at 12.
On to `Cc1cc2c(C(C)C)c(O)c(O)c(C=O)c2c(O)c1-c1c(C)cc2c(C(C)C)c(O)c(O)c(C=O)c2c1O` [GOSSYPOL], for which the GI50 in data set [1] was 2.47 µM; in [6] it was 3.5 µM; in data set [8] it was 3.16 µM; in data set [10], 3.19 µM; in [11], 0.8 to 5.1 µM; in data set [14] it was 2.97 µM. For the same molecule, the GI50 in data set [20] was found to be 2.85 µM; in data set [21], 3.22 µM. The Activity entry in data set [2] and in data set [13] was “Toxic” throughout. Besides, the IC50 in data set [9] was 0.856 µM; in [12] (du-145) it was 7.97 µM and 19.2 µM and 7.93 µM; in data set [16] (ct26) it was 23.2 µM and 61.9 µM and 46.8 µM; in the data set “cells [17]” it was 3.59 µM; in “cells [19]”, 54 µM. The inhibitory constant (Ki) in [9] turned out to be 0.162 µM.
As to `COC(=O)CN/C=C1\C(=O)C(O)=C(C(C)C)c2cc(C)c(-c3c(C)cc4c(c3O)/C(=C/NCC(=O)OC)C(=O)C(O)=C4C(C)C)c(O)c21`, the concentration for 50% growth inhibition (GI50) in data set [1] was found to be 1.88 µM; in data set [3], 1.92 µM; in data set [5] it was 2.44 µM; in [6], 1.74 µM; in data set [8] it was 2.19 µM; in [10] it was 1.63 µM. Also, the figures for the GI50 in [14], in data set [20] and in data set [21] were 1.63 µM, 1.65 µM and 2.84 µM, respectively. For the same molecule, the Activity result in data set [2] and in [13] was “Non-Toxic” each time. Further, the IC50 in [7] worked out at 0.103 µM; in data set [9] it was 1.43 µM. Also, the Ki is 0.005 µM in [7] and 0.276 µM in data set [9]. For the same molecule, the “growth inhibition (GI)” value with NCI60 was “Active”.
As to `Cc1cc2c(c(O)c1-c1c(C)cc3c(c1O)/C(=C/NCC(=O)O)C(=O)C(O)=C3C(C)C)/C(=C/NCC(=O)O)C(=O)C(O)=C2C(C)C`, the Activity entry in data set [2] and in data set [13] was “Non-Toxic” throughout. Further, the IC50 is 0.573 µM in data set [7]; 0.521 µM in data set [9]; 34.8 µM in [12] (Homo sapiens, DU-145, 72 h); 48.9 µM in [16] (Mus musculus, CT26, 72 h); 26.8 µM in “cells [17]”; 14.4 µM in “cells [19]”. Moreover, the inhibition constant Ki was 0.224 µM in [7] and 0.121 µM in data set [9]. Besides, the “growth inhibition (GI)” value in the data set with NCI60 was “Active”.
On to `Cc1cc2c(c(O)c1-c1c(C)cc3c(c1O)/C(=C/NCCCCCCC(=O)O)C(=O)C(O)=C3C(C)C)/C(=C/NCCCCCCC(=O)O)C(=O)C(O)=C2C(C)C`, for which the Activity result in [2] and in data set [13] was “Non-Toxic” in each case. Besides, the IC50 amounted to 19.1 µM in data set [12] (Homo sapiens, DU-145, 72 h); 2.08 µM in [16] (Mus musculus, CT26, 72 h); 17.3 µM in the data set “cells [17]”; 11.5 µM in “cells [19]”. The “Ratio IC50” value in the data set on CT26 stood at 11.
With `COC(=O)CCCCN/C=C1\C(=O)C(O)=C(C(C)C)c2cc(C)c(-c3c(C)cc4c(c3O)/C(=C/NCCCCC(=O)OC)C(=O)C(O)=C4C(C)C)c(O)c21`, the GI50 stood at 0.81 µM in data set [1]; 1.09 µM in data set [3]; 1.08 µM in data set [5]; 1.26 µM in [6]; 1.14 µM in data set [8]; 1 µM in [10]. For the same molecule, the GI50 in [14] was 1.27 µM; in data set [20] it was 1.05 µM; in data set [21], 1.42 µM. The Activity entry in data set [2] and in data set [13] was “Non-Toxic” in each case. Moreover, the IC50 was 0.483 µM in [7]; 0.74 µM in data set [9]; 7.36 µM in [12] (Homo sapiens, DU-145, 72 h); 16.6 µM in data set [16] (Mus musculus, CT26, 72 h); 3.38 µM in the data set “cells [17]”; 8.22 µM in “cells [19]”. Moreover, the Ki in [7] was found to be 0.182 µM; in data set [9] it was 0.139 µM. Besides, the “growth inhibition (GI)” value in the data set with SNB-19, in the data set on NCI60, with U-251, in the data set on RXF 393 and with HOP-92 was “Active” throughout.
For the molecule `COC(=O)CCCCCN/C=C1\C(=O)C(O)=C(C(C)C)c2cc(C)c(-c3c(C)cc4c(c3O)/C(=C/NCCCCCC(=O)OC)C(=O)C(O)=C4C(C)C)c(O)c21`, the GI50 in data set [1] worked out at 1.03 µM; in [3], 1.41 µM; in data set [5] it was 1.72 µM; in data set [6] it was 2.65 µM; in data set [8], 2.08 µM; in [10], 1.44 µM. Also, the GI50 in data set [14] was found to be 1.46 µM; in data set [20] it was 1.51 µM; in data set [21], 2.35 µM. Also, the Activity entry in data set [2] and in data set [13] was “Non-Toxic” throughout. Moreover, the half-inhibitory concentration (IC50) was found to be 0.84 µM in [7]; 1.02 µM in [9]; 8.56 µM in [12] (Homo sapiens, DU-145, 72 h); 13.8 µM in [16] (Mus musculus, CT26, 72 h); 0.64 µM in the data set “cells [17]”; 11.5 µM in “cells [19]”. The results for the Ki in [7] and in data set [9] were 0.348 µM and 0.195 µM, respectively. Besides, the “growth inhibition (GI)” value in the data set with NCI60 is “Active”.
With `CC1(C)CCC(CN2CCN(c3ccc(C(=O)NS(=O)(=O)c4ccc(NCC5CCOCC5)c([N+](=O)[O-])c4)c(Oc4cnc5[nH]ccc5c4)c3)CC2)=C(c2ccc(Cl)cc2)C1` [VENETOCLAX], the GI50 in data set [1] was 2.11 µM; in data set [3] it was 3.51 µM; in data set [5], 2.77 µM; in data set [6], 3.33 µM; in [8], 2.6 µM; in data set [10] it was 2.85 µM. The GI50 was 0.2 to 5.1 µM in data set [11], 3.35 µM in [14], 2.7 µM in [20] and 1.75 µM in data set [21]. Further, the half-maximal inhibitory concentration (IC50) in [9] is more than 4 µM. Also, the Ki in data set [9] was more than 0.78 µM.

Usually GI50 stands for the concentration that inhibits growth by half. A word on the IC50: it is the concentration needed to halve the response being measured. In general, Ki refers to a dissociation constant, usually derived from enzyme kinetics or from competition with a known ligand.
